Structures can show the parent of a compound that is named as a salt.
Tests used:
Details in all cases: exposure time: 72 h
[1] = system: E13 (patient-derived glioblastoma stem cells of classical subtype); assay: surviving fraction (nuclei count normalised to DMSO); higher = more cells surviving (less toxic)
[2] = system: E21 (patient-derived glioblastoma stem cells of mesenchymal subtype); assay: as above
[3] = system: E28 (patient-derived glioblastoma stem cells of classical subtype); assay: as above
[4] = system: E31 (patient-derived glioblastoma stem cells of proneural subtype); assay: as above
[5] = system: E34 (patient-derived glioblastoma stem cells of proneural subtype); assay: as above
[6] = system: E57 (patient-derived glioblastoma stem cells of mesenchymal subtype); assay: as above
[7] = system: FT3469 (normal neural stem cell line); assay: as above
[8] = system: E13; assay: phenotypic distance (Euclidean, principal components) from DMSO controls (arbitrary units); higher = stronger morphological change
[9] = system: E21; assay: as above
[10] = system: E28; assay: as above
[11] = system: E31; assay: as above
[12] = system: E34; assay: as above
[13] = system: E57; assay: as above
[14] = system: FT3469; assay: as above
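Wherever phenotypic distance (Euclidean, principal components) from DMSO controls is given: cell Painting imaging in 384-well plates, CellProfiler features reduced to at least 20 principal components, Euclidean distance versus same-plate DMSO vehicle wells (0.1% v/v), median over six images per well.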
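Wherever surviving fraction (nuclei count normalised to DMSO) is given: nuclei counted by high-content imaging of Hoechst-stained cells in laminin-coated 384-well plates, relative to 0.1% DMSO vehicle wells, with staurosporine as cell-death control.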

OC(c1cc(C(F)(F)F)nc2c(C(F)(F)F)cccc12)C1CCCCN1 (stereo unspecified) [Mefloquine hydrochloride]
Details | phenotypic distance | surviving fraction
[1], 4.1 nM | – | 0.953
[1], 12.3 nM | – | 0.908
[1], 37 nM | – | 1.09
[1], 111.1 nM | – | 1.03
[1], 333.3 nM | – | 0.98
[1], 1000 nM | – | 0.992
[1], 3000 nM | – | 0.842
[2], 4.1 nM | – | 1.11
[2], 12.3 nM | – | 0.951
[2], 37 nM | – | 0.98
[2], 111.1 nM | – | 0.983
[2], 333.3 nM | – | 1.07
[2], 1000 nM | – | 1.05
[2], 3000 nM | – | 1.07
[3], 4.1 nM | – | 1.12
[3], 12.3 nM | – | 1
[3], 37 nM | – | 1.22
[3], 111.1 nM | – | 1.14
[3], 333.3 nM | – | 1.23
[3], 1000 nM | – | 1.21
[3], 3000 nM | – | 1.12
[4], 4.1 nM | – | 1.11
[4], 12.3 nM | – | 0.942
[4], 37 nM | – | 1.15
[4], 111.1 nM | – | 0.922
[4], 333.3 nM | – | 1.11
[4], 1000 nM | – | 1.06
[4], 3000 nM | – | 0.997
[5], 4.1 nM | – | 1.1
[5], 12.3 nM | – | 0.856
[5], 37 nM | – | 1.06
[5], 111.1 nM | – | 0.941
[5], 333.3 nM | – | 1.14
[5], 1000 nM | – | 0.908
[5], 3000 nM | – | 1.02
[6], 4.1 nM | – | 1.05
[6], 12.3 nM | – | 1.05
[6], 37 nM | – | 0.93
[6], 111.1 nM | – | 0.987
[6], 333.3 nM | – | 1.17
[6], 1000 nM | – | 0.93
[6], 3000 nM | – | 0.903
[7], 4.1 nM | – | 1.13
[7], 12.3 nM | – | 1.13
[7], 37 nM | – | 0.975
[7], 111.1 nM | – | 1.2
[7], 333.3 nM | – | 1.07
[7], 1000 nM | – | 1.02
[7], 3000 nM | – | 0.875
[8], 4.1 nM | 0.361 | –
[8], 12.3 nM | 0.509 | –
[8], 37 nM | 0.5 | –
[8], 111.1 nM | 1.43 | –
[8], 333.3 nM | 0.51 | –
[8], 1000 nM | 0.651 | –
[8], 3000 nM | 0.845 | –
[9], 4.1 nM | 0.776 | –
[9], 12.3 nM | 0.568 | –
[9], 37 nM | 0.797 | –
[9], 111.1 nM | 0.488 | –
[9], 333.3 nM | 0.618 | –
[9], 1000 nM | 0.511 | –
[9], 3000 nM | 1.05 | –
[10], 4.1 nM | 0.636 | –
[10], 12.3 nM | 0.53 | –
[10], 37 nM | 0.741 | –
[10], 111.1 nM | 0.677 | –
[10], 333.3 nM | 0.764 | –
[10], 1000 nM | 1.07 | –
[10], 3000 nM | 1.8 | –
[11], 4.1 nM | 0.433 | –
[11], 12.3 nM | 0.421 | –
[11], 37 nM | 0.563 | –
[11], 111.1 nM | 0.539 | –
[11], 333.3 nM | 0.506 | –
[11], 1000 nM | 0.632 | –
[11], 3000 nM | 0.65 | –
[12], 4.1 nM | 0.892 | –
[12], 12.3 nM | 0.581 | –
[12], 37 nM | 0.73 | –
[12], 111.1 nM | 0.475 | –
[12], 333.3 nM | 0.804 | –
[12], 1000 nM | 0.787 | –
[12], 3000 nM | 0.828 | –
[13], 4.1 nM | 0.488 | –
[13], 12.3 nM | 0.813 | –
[13], 37 nM | 0.474 | –
[13], 111.1 nM | 0.652 | –
[13], 333.3 nM | 1.37 | –
[13], 1000 nM | 0.948 | –
[13], 3000 nM | 0.991 | –
[14], 4.1 nM | 0.882 | –
[14], 12.3 nM | 0.444 | –
[14], 37 nM | 0.675 | –
[14], 111.1 nM | 0.627 | –
[14], 333.3 nM | 0.598 | –
[14], 1000 nM | 0.423 | –
[14], 3000 nM | 1.16 | –

CCC1=C[C@@H]2CN(C1)Cc1c([nH]c3ccccc13)[C@@](C(=O)OC)(c1cc3c(cc1OC)N(C)[C@H]1[C@@](O)(C(=O)OC)[C@H](OC(C)=O)[C@]4(CC)C=CCN5CC[C@]31[C@@H]54)C2 [Vinorelbine Tartrate]
Details | phenotypic distance | surviving fraction
[1], 4.1 nM | – | 0.863
[1], 12.3 nM | – | 0.903
[1], 37 nM | – | 0.916
[1], 111.1 nM | – | 0.907
[1], 333.3 nM | – | 0.82
[1], 1000 nM | – | 0.371
[1], 3000 nM | – | 0.246
[2], 4.1 nM | – | 0.868
[2], 12.3 nM | – | 0.894
[2], 37 nM | – | 0.926
[2], 111.1 nM | – | 0.761
[2], 333.3 nM | – | 0.586
[2], 1000 nM | – | 0.169
[2], 3000 nM | – | 0.1
[3], 4.1 nM | – | 0.904
[3], 12.3 nM | – | 0.815
[3], 37 nM | – | 0.801
[3], 111.1 nM | – | 0.749
[3], 333.3 nM | – | 0.609
[3], 1000 nM | – | 0.375
[3], 3000 nM | – | 0.353
[4], 4.1 nM | – | 0.794
[4], 12.3 nM | – | 0.911
[4], 37 nM | – | 0.749
[4], 111.1 nM | – | 0.649
[4], 333.3 nM | – | 0.37
[4], 1000 nM | – | 0.126
[4], 3000 nM | – | 0.0917
[5], 4.1 nM | – | 1.05
[5], 12.3 nM | – | 0.954
[5], 37 nM | – | 0.856
[5], 111.1 nM | – | 0.97
[5], 333.3 nM | – | 0.822
[5], 1000 nM | – | 0.57
[5], 3000 nM | – | 0.402
[6], 4.1 nM | – | 0.969
[6], 12.3 nM | – | 1.04
[6], 37 nM | – | 1.04
[6], 111.1 nM | – | 1.02
[6], 333.3 nM | – | 0.899
[6], 1000 nM | – | 0.447
[6], 3000 nM | – | 0.102
[7], 4.1 nM | – | 0.953
[7], 12.3 nM | – | 0.829
[7], 37 nM | – | 0.834
[7], 111.1 nM | – | 0.827
[7], 333.3 nM | – | 0.569
[7], 1000 nM | – | 0.553
[7], 3000 nM | – | 0.56
[8], 4.1 nM | 1.1 | –
[8], 12.3 nM | 1.18 | –
[8], 37 nM | 1.26 | –
[8], 111.1 nM | 1.7 | –
[8], 333.3 nM | 2.71 | –
[8], 1000 nM | 4.6 | –
[8], 3000 nM | 6.33 | –
[9], 4.1 nM | 1.06 | –
[9], 12.3 nM | 1.08 | –
[9], 37 nM | 1.45 | –
[9], 111.1 nM | 2.33 | –
[9], 333.3 nM | 4.36 | –
[9], 1000 nM | 7 | –
[9], 3000 nM | 8.49 | –
[10], 4.1 nM | 0.584 | –
[10], 12.3 nM | 0.83 | –
[10], 37 nM | 0.727 | –
[10], 111.1 nM | 1.31 | –
[10], 333.3 nM | 2.18 | –
[10], 1000 nM | 2.7 | –
[10], 3000 nM | 3.22 | –
[11], 4.1 nM | 0.666 | –
[11], 12.3 nM | 0.627 | –
[11], 37 nM | 0.856 | –
[11], 111.1 nM | 1.44 | –
[11], 333.3 nM | 3.01 | –
[11], 1000 nM | 4.58 | –
[11], 3000 nM | 5.73 | –
[12], 4.1 nM | 0.476 | –
[12], 12.3 nM | 0.944 | –
[12], 37 nM | 0.78 | –
[12], 111.1 nM | 1.01 | –
[12], 333.3 nM | 1.48 | –
[12], 1000 nM | 2.84 | –
[12], 3000 nM | 4.02 | –
[13], 4.1 nM | 0.512 | –
[13], 12.3 nM | 0.688 | –
[13], 37 nM | 0.822 | –
[13], 111.1 nM | 0.746 | –
[13], 333.3 nM | 3.9 | –
[13], 1000 nM | 4.81 | –
[13], 3000 nM | 6.16 | –
[14], 4.1 nM | 0.854 | –
[14], 12.3 nM | 1.01 | –
[14], 37 nM | 1.01 | –
[14], 111.1 nM | 1.12 | –
[14], 333.3 nM | 2.43 | –
[14], 1000 nM | 4.88 | –
[14], 3000 nM | 3.13 | –
